Data from patent US20110162437A1, “Biomarker for Mitochondrial Toxicity Associated with Phospholipidosis” (priority 2006, published 2011).
Where “and” joins values, the source holds several entries; their conditions need not be identical. Equal values may be shown once. Entries after “also recorded” stand apart in the source; their conditions may differ.

How the values were obtained:
Male Wistar rats = experiment: PAG measurement by 1H NMR in urine after single oral dose, ratio versus time-matched controls; assay type: in vivo, rat; details: for PAG: urine, individual animals
Description: (§1) All animals received (human) care as specified by Swiss law and in accordance with the “Guide for the care and use of laboratory animals” published by the NIH. Male Wistar rats (5 animals/dose-group) were purchased from RCC (Füllingsdorf, Switzerland) and housed individually. Treated animals were dosed orally by gavage with several doses of test compounds (Table 1). Control animals received the same volume of vehicle as placebo. Necropsy was performed 48 (subgroup A) or 168 hours (subgroup B) after a single administration (=Day 1) and urine samples were collected in metabolism cages at 0 to 4° C. (automatically refrigerated by a Tecniplast sampling/cooling unit (RACK B940, Tecniplast, USA)) at the intervals given in the sampling schedule in Table 2 into labelled sample tubes containing 1 ml of an aqueous Na-azide (1%) solution. Before aliquoting, urine volumes were determined.
Urine samples were taken on day -7,-2,-1, 1, 2, 3, 4, 5, 6 and 7, whereby Day 1 was the Day of dosing.
Immediately after reaching the end of the sampling period, the volume was determined and the samples were centrifuged at 3000 u/min (500 g) for 10 minutes.
Aliquot: Approximately 2 ml was transferred in 1.8 ml cryvials, round bottom, freestanding, with screw caps and septum for NMR-spectroscopic examinations (Bruker Analytik GmbH, Rheinstetten, Germany, Bruker part No. 85372). The vials were stored at −80° C.
Urine samples were prepared and measured on a Bruker 500 MHz NMR instrument according to the COMET 1H-NMR protocol (Keun, H. C et al., (2002) Physiological variation and analytical reproducibility in metabonomic urinalysis. Chem. Res. Tox. 15, 1380-1386) and as described above. In total 467 urine samples were analyzed. After measurement, all data were processed by XWINMR 3.5.6 (Bruker Biospin AG, Fällanden). Representative spectra are depicted in FIG. 2. Phase correction and baseline correction were performed with NMRPROC 0.3 (T. Ebbels, H. Keun; Imperial College). Spectral data were binned using AMIX 2.6 (Bruker Biospin AG, Fällanden) following the COMET Data Processing & Pattern Recognition protocol (Keun, H. C., et al., (2002) Physiological variation and analytical reproducibility in metabonomic urinalysis. Chem. Res. Tox. 15, 1380-1386). QC check procedures (Dieterle F., Ross A., Schlotterbeck G., Senn H. (2006) Probabilistic Quotient Normalization as Robust Method to Account for Dilution of Complex Biological Mixtures. Application in 1H NMR Metabonomics. Anal. Chem. 78, 4281-4290) were applied on binned data to detect outliers. In total 7 outliers were detected and removed from further analysis. All data were mean-centered and normalized using the probabilistic quotient normalization (Dieterle F., Ross A., Schlotterbeck G., Senn H. (2006) Probabilistic Quotient Normalization as Robust Method to Account for Dilution of Complex Biological Mixtures. Application in 1H NMR Metabonomics. Anal. Chem. 78, 4281-4290.). All binned data were annotated and transferred to the ANT (ANT: Affymetrix NMR Toxicology Data System) database.
The exact PAG quantification was performed according to following procedure: • Baseline subtraction of spectra • Integration of PAG peaks ((=7.47 ppm, (=7.39 ppm, (=3.79 ppm, and (=3.7 ppm respectively) and Citrate region ((=2.66-2.74 ppm and 2.50-2.58 ppm). • Quotient normalization (Dieterle F., Ross A., Schlotterbeck G., Senn H. (2006) Probabilistic Quotient Normalization as Robust Method to Account for Dilution of Complex Biological Mixtures. Application in 1H NMR Metabonomics. Anal. Chem. 78, 4281-4290.) • Divide each of the PAG bins by its average (all spectra) to correct for different relaxation times and number of protons • Calculate median out of the PAG bins • Calculate ratio versus time-matched controls

lymphocytes = experiment: Electron microscopic examination of buffy coat lymphocytes for lamellar bodies (determination of phospholipidosis); assay type: in vivo, rat; details: for lymphocytes %, pos. / lymphocytes positive (with lamellar bodies): individual rats, 1000 mg/kg/day
Description: as §1
Blood samples (as much as possible) were withdrawn from all animals at necropsy at about 48 hours after dosing (subgroup A) and about 168 hours after dosing (subgroup B)
The samples were collected from the abdominal aorta or by cardiac puncture under terminal anaesthesia (CO2). A total of at least 2 ml blood was required to gain buffy coat (buffy coat=leukocyte band) samples.
After fixation in 2.5% glutaraldehyde, the buffy coat samples from all animals were embedded in Epon. […] All thin sections were examined ultrastructurally. If possible, 200 lymphocytes per sample were examined for lamellar bodies. The results per sample include the total number of lymphocytes examined, the total number of positive lymphocytes (i.e. with lamellar bodies), the percentage of positive lymphocytes and a grading of severity of phospholipidosis (criteria see table 4)

basic pKa value = assay type: physicochemical
[1] = potential to induce phospholipidosis judged from amphiphilicity and basic pKa; details: from reduced amphiphilicity and basic pKa
Excerpt: The structural difference between both molecules can be mainly characterized by the exchange of the piperazine against a morpholine moiety in compound 2.

[2] = necropsy 48 hours after application
[3] = necropsy 168 hours after application

## CN(C(=O)C(C)(C)c1cc(C(F)(F)F)cc(C(F)(F)F)c1)c1cnc(N2CCOCC2)cc1-c1ccccc1Cl [Compound 2, 2-(3,5-Bis-trifluoromethyl-phenyl)-N-[4-(2-chloro-phenyl)-6-morpholin-4-yl-pyridin-3-yl]-N-methyl-isobutyramide]
Male Wistar rats; High_Dose group, Time 0 (within 8 hours before treatment)
  PAG: 0.3191 and 0.4082 and 0.1757 and 0.4688 and 0.3904 and 0.3807 and 0.4568 and 0.5015 and 0.3805 and 0.4405
Male Wistar rats; High_Dose group, Time 8 (within 8 hours after treatment)
  PAG: 0.6552 and 0.2654 and 0.3244 and 0.3661 and 0.5090 and 0.8253 and 0.6223 and 0.6794 and 0.5865 and 0.5553
Male Wistar rats; High_Dose group, Time 24 (within 8 to 24 hours after treatment)
  PAG: 0.4048 and 0.3363 and 0.1408 and 0.3750 and 0.4284 and 0.6538 and 0.4408 and 0.2588 and 0.4111 and 0.3592
Male Wistar rats; High_Dose group, Time −16 (1 day before treatment)
  PAG: 0.6280 and 0.3499 and 0.4531 and 0.5078 and 0.6008 and 0.3961 and 0.6035 and 0.5396 and 0.6968
Male Wistar rats; High_Dose group, Time −40 (2 days before treatment)
  PAG: 0.5320 and 0.2568 and 0.4805 and 0.4717 and 0.4514 and 0.4760 and 0.6419 and 0.7515 and 0.6794 and 0.7696
Male Wistar rats; Low_Dose group, Time 0 (within 8 hours before treatment)
  PAG: 0.6632 and 0.5179 and 0.2795 and 0.6376 and 0.3104 and 0.3524 and 0.4991 and 0.5273 and 0.2959 and 0.3191
Male Wistar rats; Low_Dose group, Time 8 (within 8 hours after treatment)
  PAG: 0.8897 and 0.6310 and 0.3915 and 1.2919 and 0.3580 and 0.9744 and 0.3039 and 0.7208 and 0.6353 and 0.4304
Male Wistar rats; Low_Dose group, Time 24 (within 8 to 24 hours after treatment)
  PAG: 0.6934 and 0.3762 and 0.4835 and 0.8446 and 0.3743 and 0.5615 and 0.3777 and 0.4892 and 0.3393 and 0.4166
Male Wistar rats; Low_Dose group, Time 48 (2 days after treatment)
  PAG: 0.6453 and 0.3298 and 0.3762 and 0.7958 and 0.1879
Male Wistar rats; Low_Dose group, Time −16 (1 day before treatment)
  PAG: 1.0275 and 1.1002 and 0.4610 and 1.3440 and 0.2541 and 0.7357 and 0.5260 and 0.6162 and 0.5218 and 0.4132
Male Wistar rats; Low_Dose group, Time −40 (2 days before treatment)
  PAG: 0.3418 and 0.5238 and 0.5336 and 0.7115 and 0.6105 and 0.5232
Male Wistar rats; rat, single oral dose 300 and 1000 mg/kg
  PAG levels of both dose groups versus time matched controls: comparable to their time matched controls
Male Wistar rats; rat, single oral dose, both dose groups, normalized to time matched controls
  dose dependant change of PAG levels in urine: No significant dose dependant change
lymphocytes; [2]
  lymphocytes %, pos.: 0%
  lymphocytes positive (with lamellar bodies): 0
lymphocytes; [3]
  lymphocytes %, pos.: 0%
  lymphocytes positive (with lamellar bodies): 0
lymphocytes; rats, single oral dose, necropsy 48 or 168 hours after application
  lymphocytes containing cytoplasmic lamellar bodies (finding in words): did not show any lymphocytes with lamellar bodies; also recorded: not affected; also recorded: did not show any lymphocytes containing cytoplasmic lamellar bodies
Basic pKa value
  pKa: 4.07
[1]
  potential to induce phospholipidosis: low potential
